Experimental data: ChEMBL document CHEMBL1772958, “In vivo activity of benzoyl ester clerodane diterpenoid derivatives from Dodonaea polyandra” (2011)
Calls of active or inactive are those of the source. The calls are words filed in the database; no cut-off is given here.

Legend:
Mus musculus [1] = assay: Antiinflammatory activity against TPA-induced ear edema in mouse assessed as ear thickness at 0.90 umol/ear, sc administered 30 mins after TPA challenge measured after 2 to 48 hrs; type: functional, organism-based
Mus musculus [2] = assay: Antiinflammatory activity against TPA-induced ear edema in mouse assessed as ear thickness at 0.22 umol/ear, topically administered 30 mins after TPA challenge measured after 8 hrs
Mus musculus [3] = assay: Antiinflammatory activity against TPA-induced ear edema in mouse assessed as ear thickness at 0.088 to 1.77 umol/ear, sc administered 30 mins after TPA challenge measured after 2 to 48 hrs; type: functional, organism-based
Mus musculus [4] = assay: Antiinflammatory activity against TPA-induced ear edema in mouse assessed as ear thickness, sc administered 30 mins after TPA challenge measured after 2 to 48 hrs; type: functional, organism-based
Mus musculus [5] = assay: Antiinflammatory activity against TPA-induced ear edema in mouse assessed as ear thickness at 0.91 umol/ear, sc administered 30 mins after TPA challenge measured after 2 to 48 hrs; type: functional
Mus musculus [6] = assay: Antiinflammatory activity against TPA-induced ear edema in mouse assessed as ear thickness at 1.83 umol/ear, sc administered 30 mins after TPA challenge measured after 2 to 48 hrs; type: functional, organism-based
Mus musculus [7] = assay: Antiinflammatory activity against TPA-induced ear edema in mouse assessed as ear thickness at 0.023 to 0.91 umol/ear, sc administered 30 mins after TPA challenge measured after 2 to 48 hrs; type: functional, organism-based

**Q.** How did the inhibition (Mus musculus [1]) turn out when CCC(=O)OCC(=O)[C@@]1(OC(=O)CC)[C@@H](C)C[C@H]2[C@@H]3CCC4=CC(=O)C=C[C@]4(C)[C@@]3(F)[C@@H](O)C[C@@]21C was run?
**A.** Active

**Q.** Which results are given for C[C@@]1(CCc2ccoc2)[C@H](COC(=O)c2ccccc2)CC[C@]2(C)C(C(=O)O)=C[C@H](O)C[C@H]12 (relative stereo)?
**A.** inhibition (INH) (Mus musculus [2]): 70.2%; Activity (Mus musculus [3]): Active; Activity (Mus musculus [4]): Active

**Q.** Which “inhibition (INH)” value (Mus musculus [5]) does the source give for C[C@@H]1CC[C@]2(C)C(C(=O)O)=C[C@H](OC(=O)c3ccccc3)C[C@@H]2[C@]1(C)CCc1ccoc1 (relative stereo) here?
**A.** 76.4%

**Q.** With C[C@@]1(CCc2ccoc2)[C@H](COC(=O)c2ccccc2)CC[C@]2(C)C(C(=O)O)=CCC[C@H]12 (relative stereo) as the molecule, how does the Activity (Mus musculus [6]) read?
**A.** Active

**Q.** What about the Activity (Mus musculus [7]) of the same molecule?
**A.** inactive
